Source: PMC7523345 (Investigational new drugs, 2018)

Assay: Phase I dose escalation study: safety, tolerability, DLT and MTD
Type: in vivo

Cc1cccc2c1NC(=O)[C@@H](NC(=O)[C@H](CCC(F)(F)F)[C@H](CCC(F)(F)F)C(N)=O)N=C2c1cccc(F)c1 [BMS-986115]
Gr 3/4 diarrhoea related to the study treatment (1.5 mg QD, 2 of 7 patients): 29%
Time for Gr 3/4 diarrhoea to resolve to Gr 1 (1.5 mg QD, with appropriate medical management): ≤ 24 h
Abdominal distension (drug related AE, all grades) (All patients (N = 36)): 2 (6) n (%)
Abdominal pain (drug related AE, Grade 3 and 4) (All patients (N = 36)): 1 (3) n (%)
Abdominal pain (drug related AE, all grades) (All patients (N = 36)): 3 (8) n (%)
Blood creatinine increased (drug related AE, all grades) (All patients (N = 36)): 2 (6) n (%)
Colitis (drug related AE, Grade 3 and 4) (All patients (N = 36)): 1 (3) n (%)
Cough (drug related AE, Grade 3 and 4) (All patients (N = 36)): 1 (3) n (%)
Cough (drug related AE, all grades) (All patients (N = 36)): 4 (11) n (%)
Decreased Appetite (drug related AE, Grade 3 and 4) (All patients (N = 36)): 1 (3) n (%)
Decreased Appetite (drug related AE, all grades) (All patients (N = 36)): 13 (36) n (%)
Dehydration (drug related AE, Grade 3 and 4) (All patients (N = 36)): 1 (3) n (%)
Dehydration (drug related AE, all grades) (All patients (N = 36)): 5 (14) n (%)
Dermatitis acneiform (drug related AE, all grades) (All patients (N = 36)): 4 (11) n (%)
Diarrhoea (drug related AE, Grade 3 and 4) (All patients (N = 36)): 7 (19) n (%)
Diarrhoea (drug related AE, all grades) (All patients (N = 36)): 26 (72) n (%)
Dry mouth (drug related AE, all grades) (All patients (N = 36)): 3 (8) n (%)
Dry skin (drug related AE, all grades) (All patients (N = 36)): 5 (14) n (%)
Dysgeusia (drug related AE, all grades) (All patients (N = 36)): 5 (14) n (%)
Dyspepsia (drug related AE, all grades) (All patients (N = 36)): 3 (8) n (%)
Dysphonia (drug related AE, all grades) (All patients (N = 36)): 5 (14) n (%)
Fatigue (drug related AE, Grade 3 and 4) (All patients (N = 36)): 1 (3) n (%)
Fatigue (drug related AE, all grades) (All patients (N = 36)): 16 (44) n (%)
Flatulence (drug related AE, all grades) (All patients (N = 36)): 3 (8) n (%)
Hypocalcaemia (drug related AE, Grade 3 and 4) (All patients (N = 36)): 1 (3) n (%)
Hypocalcaemia (drug related AE, all grades) (All patients (N = 36)): 2 (6) n (%)
Hypokalaemia (drug related AE, Grade 3 and 4) (All patients (N = 36)): 4 (11) n (%)
Hypokalaemia (drug related AE, all grades) (All patients (N = 36)): 10 (28) n (%)
Hyponatraemia (drug related AE, Grade 3 and 4) (All patients (N = 36)): 2 (6) n (%)
Hyponatraemia (drug related AE, all grades) (All patients (N = 36)): 2 (6) n (%)
Hypophosphataemia (drug related AE, Grade 3 and 4) (All patients (N = 36)): 14 (39) n (%)
Hypophosphataemia (drug related AE, all grades) (All patients (N = 36)): 23 (64) n (%)
Ileus (drug related AE, Grade 3 and 4) (All patients (N = 36)): 1 (3) n (%)
Increased upper airway secretion (drug related AE, all grades) (All patients (N = 36)): 3 (8) n (%)
Laryngeal pain (drug related AE, all grades) (All patients (N = 36)): 2 (6) n (%)
Leucocytosis (drug related AE, Grade 3 and 4) (All patients (N = 36)): 1 (3) n (%)
Mouth ulceration (drug related AE, all grades) (All patients (N = 36)): 3 (8) n (%)
Nausea (drug related AE, Grade 3 and 4) (All patients (N = 36)): 4 (11) n (%)
Nausea (drug related AE, all grades) (All patients (N = 36)): 22 (61) n (%)
Pruritus (drug related AE, Grade 3 and 4) (All patients (N = 36)): 1 (3) n (%)
Pruritus (drug related AE, all grades) (All patients (N = 36)): 9 (25) n (%)
Pulmonary embolism (drug related AE, Grade 3 and 4) (All patients (N = 36)): 1 (3) n (%)
Rash (drug related AE, all grades) (All patients (N = 36)): 11 (31) n (%)
Rash maculopapular (drug related AE, all grades) (All patients (N = 36)): 5 (14) n (%)
Sinusitis (drug related AE, all grades) (All patients (N = 36)): 2 (6) n (%)
Urticaria (drug related AE, Grade 3 and 4) (All patients (N = 36)): 1 (3) n (%)
Vision blurred (drug related AE, all grades) (All patients (N = 36)): 2 (6) n (%)
Vomiting (drug related AE, Grade 3 and 4) (All patients (N = 36)): 1 (3) n (%)
Vomiting (drug related AE, all grades) (All patients (N = 36)): 16 (44) n (%)
Weight decreased (drug related AE, all grades) (All patients (N = 36)): 2 (6) n (%)
Subjects with treatment-related SAEs (Arm A QD): 6 subjects
Abdominal distension (drug related AE, all grades) (Arm A QD 0.3 mg (N = 2)): 0 n (%)
Abdominal pain (drug related AE, Grade 3 and 4) (Arm A QD 0.3 mg (N = 2)): 0 n (%)
Abdominal pain (drug related AE, all grades) (Arm A QD 0.3 mg (N = 2)): 0 n (%)
Blood creatinine increased (drug related AE, all grades) (Arm A QD 0.3 mg (N = 2)): 0 n (%)
Colitis (drug related AE, Grade 3 and 4) (Arm A QD 0.3 mg (N = 2)): 0 n (%)
Cough (drug related AE, Grade 3 and 4) (Arm A QD 0.3 mg (N = 2)): 0 n (%)
Cough (drug related AE, all grades) (Arm A QD 0.3 mg (N = 2)): 0 n (%)
Decreased Appetite (drug related AE, Grade 3 and 4) (Arm A QD 0.3 mg (N = 2)): 0 n (%)
Decreased Appetite (drug related AE, all grades) (Arm A QD 0.3 mg (N = 2)): 0 n (%)
Dehydration (drug related AE, Grade 3 and 4) (Arm A QD 0.3 mg (N = 2)): 0 n (%)
Dehydration (drug related AE, all grades) (Arm A QD 0.3 mg (N = 2)): 0 n (%)
Dermatitis acneiform (drug related AE, all grades) (Arm A QD 0.3 mg (N = 2)): 0 n (%)
Diarrhoea (drug related AE, Grade 3 and 4) (Arm A QD 0.3 mg (N = 2)): 0 n (%)
Diarrhoea (drug related AE, all grades) (Arm A QD 0.3 mg (N = 2)): 0 n (%)
Dry mouth (drug related AE, all grades) (Arm A QD 0.3 mg (N = 2)): 0 n (%)
Dry skin (drug related AE, all grades) (Arm A QD 0.3 mg (N = 2)): 0 n (%)
Dysgeusia (drug related AE, all grades) (Arm A QD 0.3 mg (N = 2)): 0 n (%)
Dyspepsia (drug related AE, all grades) (Arm A QD 0.3 mg (N = 2)): 0 n (%)
Dysphonia (drug related AE, all grades) (Arm A QD 0.3 mg (N = 2)): 0 n (%)
